Counter-ions that a name gives are not always drawn. Like-named read-outs stand apart in the source and are kept apart here.
Assays:
[1] = test system: P388 cells; assay: in vitro Antitumor Test on P388 Cells (Mouse Leukemic Cells), MTT, 3 days; assay type: cell-based; settings: 72 h, 3 days incubation
Experimental: P388 cells suspended in RPMI1640 medium (manufactured by Sanko Junyaku) containing 10% of fetal calf serum, (100 U/ml) of penicillin, 100 μg/ml of streptomycin, 5×10^-5 M of mercaptoethanol and 1 mM of sodium pyruvate were pipetted into a 96-well U-bottomed microplate at a ratio of 1.25×10^3 cells (0.1 ml) per well and incubated in a incubator containing 5% of carbon dioxide at 37° C. for a day. A compound of the present invention was dissolved in dimethyl sulfoxide to give a concentration of 10^-2 M and then diluted with the 10% fetal calf serum-containing RPMI1640 culture medium to give a concentration of 10^-4 or 10^-5 M. By taking this concentration as the maximal level, threefold serial dilution was effected with the use of the 10% fetal calf serum-containing RPMI1640 culture medium. Then these dilutions were added to the P388 incubation plate as described above at a ratio of 0.1 ml per well followed by incubation in an incubator containing 5% of carbon dioxide at 37° C. for 3 days. After the completion of the incubation, 0.05 ml/well of a 3.3 mg/ml solution of MTT [3-(4,5-dimethylthiazol-2-yl)-2,5-diphenyltetrazolium bromide] was added thereto and the incubation was continued for additional 2 hours. The microplate was centrifuged and the supernatant was aspirated off from each well. Then the formazan thus formed was dissolved in 0.1 ml of dimethyl sulfoxide and the absorbance thereof at 540 nm measured with a microplate reader was taken as an indication of the viable cell count. In accordance with the following formula, the inhibitory ratio was calculated and the 50% inhibitory concentration (IC50) of the test compound was determined: [formula] wherein T means the absorbance of a well containing the test compound; and C means the absorbance of a well containing no test compound.

[2] = test system: M5076 (Mouse Reticulum Cell Sarcoma); assay: in vivo Antitumor Test on M5076 (Mouse Reticulum Cell Sarcoma) transplanted in BDF1 mice; settings: M5076, ip, 504 h, i.p.; for survival rate on day 21 at 50 mg/kg / inhibition in vivo at 50 mg/kg: 50 mg/kg/day
Experimental: M5076 cells (1×10^6 /animal) were subcutaneously transplanted into the side part of each BDF1 mouse (aged 6 to 7 weeks, female). A compound of the present invention was dissolved in a 5% solution of glucose. From the next day of the transplantation, the solution of the compound was intraperitoneally administered to the animals once a day in accordance with each schedule. On the other hand, a 5% solution of glucose was administered to the control group. The control group had 10 animals, while each test group had 5 animals.
On the 21st day after the transplantation, tumors were taken out and weighed. The tumor multiplication inhibitory ratio of each test group to the control group was determined in accordance with the following formula: [formula] wherein T means the average tumor weight of the test group; and C means the average tumor weight of the control group.

[3] = d1,2,3,4 after transplantation, read-out: Survival rate on the judgement day (21th day)
[4] = d1,2,3,4 after transplantation, tumor weight day 21, read-out: Proliferation inhibitory ratio (%)

| Structure (SMILES) | IC50 [1] [nM] | other results |
| --- | --- | --- |
| O=c1c2cccc3c4c5ccccc5ccc4n(c(=O)n1CCN1CCCC1)c23 [Example 12, 5-[2-(1-Pyrrolidinyl)ethyl]-4H-benzo[c]pyrimido[5,6,1-jk]carbazole-4,6(5H)-dione hydrochloride] | 62 | survival rate on day 21 at 50 mg/kg [2, 3]: 100%; inhibition in vivo at 50 mg/kg [2, 4]: 93.9% |
| CN(C)CCn1c(=O)c2cccc3c4c(n(c1=O)c32)Cc1ccccc1-4 [Example 20, 2-[2-(Dimethylamino)ethyl]-1H,11H-indeno[1',2':4,5]pyrrolo[3,2,1-ij]quinazoline-1,3(2H)-dione hydrochloride] | 570 | survival rate on day 21 at 12.5 mg/kg ([2]; 12.5 mg/kg/day, d1,2,3,4 after transplantation, read-out: Survival rate on the judgement day (21th day)): 100%; inhibition in vivo at 12.5 mg/kg ([2]; 12.5 mg/kg/day, d1,2,3,4 after transplantation, tumor weight day 21, read-out: Proliferation inhibitory ratio (%)): 70.8% |
| COc1ccc2ccc3c(c2c1)c1cccc2c(=O)n(CCN(C)C)c(=O)n3c21 [Example 26, 5-[2-(Dimethylamino)ethyl]-12-methoxy-4H-benzo[c]pyrimido [5,6,1-jk]carbazole-4,6(5H)-dione hydrochloride] | 230 | survival rate on day 21 at 50 mg/kg [2, 3]: 100%; inhibition in vivo at 50 mg/kg [2, 4]: 97.4% |
| CN(C)CCn1c(=O)c2cccc3c4c5cnccc5ccc4n(c1=O)c23 [Example 33, 9-[2-(Dimethylamino)ethyl]-8H-pyrido[4,3-c]pyrimido[5,6,1-jk]carbazole-8,10(9H)-dione dihydrochloride] | 56 | survival rate on day 21 at 50 mg/kg ([2]; d9 after transplantation, read-out: Survival rate on the judgement day (21th day)): 100%; inhibition in vivo at 50 mg/kg ([2]; d9 after transplantation, tumor weight day 21, read-out: Proliferation inhibitory ratio (%)): 74.9% |
| CN(C)CCn1c(=O)c2cccc3c4c5ccc(C#N)cc5ccc4n(c1=O)c23 [Example 35, 11-Cyano-5-[2-(dimethylamino)ethyl]-4H-benzo[c]pyrimido [5,6,1-jk]carbazole-4,6(5H)-dione hydrochloride] | 63 | survival rate on day 21 at 25 mg/kg ([2]; 25 mg/kg/day, d9 after transplantation, read-out: Survival rate on the judgement day (21th day)): 100%; inhibition in vivo at 25 mg/kg ([2]; 25 mg/kg/day, d9 after transplantation, tumor weight day 21, read-out: Proliferation inhibitory ratio (%)): 78.7% |
| CN(C)CCn1c(=O)c2cccc3c4c5c(ccc4n(c1=O)c23)C(=O)C(C)(C)CC5 [Example 44, 12,13-Dihydro-11,11-dimethyl-5-[2-(dimethylamino)ethyl]-4H-benzo[c]pyrimido[5,6,1-jk]carbazole-4,6,10(5H,11H)-trione hydrochloride] | 360 |  |
| Cc1ccc(S(=O)(=O)Nc2ccc3c(ccc4c3c3cccc5c(=O)n(CCN(C)C)c(=O)n4c53)c2)cc1 [Example 48, 5-[2-(Dimethylamino)ethyl]-11-(4-methylbenzenesulfonamido)-4H-benzo[c]pyrimido[5,6,1-jk]carbazole-4,6(5H)-dione hydrochloride] | 350 |  |
| CN(C)CCN(C)CCn1c(=O)c2cccc3c4c5ccccc5ccc4n(c1=O)c23 [Example 51, 5-[2-[N-[2-(Dimethylamino)ethyl]-N-methylamino]ethyl]-4H-benzo[c]pyrimido[5,6,1-jk]carbazole-4,6(5H)-dione dihydrochloride] | 290 |  |
| CN(CCO)CCn1c(=O)c2cccc3c4c5ccccc5ccc4n(c1=O)c23 [Example 52, 5-[2-[N-(2-(Hydroxyethyl)-N-methylamino]ethyl]-4H-benzo[c]pyrimido[5,6,1-jk]carbazole-4,6(5H)-dione hydrochloride] | 150 | survival rate on day 21 at 50 mg/kg [2, 3]: 100%; inhibition in vivo at 50 mg/kg [2, 4]: 70.6% |
| CN(C)CCn1c(=O)c2cc(O)cc3c4c5ccccc5ccc4n(c1=O)c23 [Example 53, 5-[2-[Dimethylamino)ethyl]-2-hydroxy-4H-benzo[c]pyrimido [5,6,1-jk]carbazole-4,6(5H)-dione hydrochloride] | 300 |  |

Further compounds by falling IC50 [1], results first:

| IC50 [1] [nM] | Structure (SMILES) | other results |
| --- | --- | --- |
| 250 | CN(C)CCn1c(=O)c2cc(N)cc3c4c5ccccc5ccc4n(c1=O)c23 [Example 47, 2-Amino-5-[2-(dimethylamino)ethyl]-4H-benzo[c]pyrimido [5,6,1-jk]carbazole-4,6(5H)-dione dihydrochloride] |  |
| 160 | COc1cc2c(=O)n(CCN(C)C)c(=O)n3c4ccc5ccccc5c4c(c1)c23 [Example 45, 5-[2-(Dimethylamino)ethyl]-2-methoxy-4H-benzo[c]pyrimido [5,6,1-jk]carbazole-4,6(5H)-dione hydrochloride] |  |
| 155 | CN(C)CCn1c(=O)c2nc3ccccc3c3c4ccc5ccccc5c4n(c1=O)c23 [Example 58, 7-[2-(Dimethylamino)ethyl]-6H-benzo[c,i]pyrimido[1,6,5-lm]-β-carboline-6,8(7H)-dione] |  |
| 80 | COc1cccc2c1ccc1c3cccc4c(=O)n(CCN(C)C)c(=O)n(c43)c21 [Example 54, 2-[2-(Dimethylamino)ethyl]-9-methoxy-1H-benzo[a]pyrimido [5,6,1-jk]carbazole-1,3(2H)-dione hydrochloride] |  |
| 77 | CN(C)CCn1c(=O)c2cccc3c4c5ccc(O)cc5ccc4n(c1=O)c23 [Example 46, 5-[2-(Dimethylamino)ethyl]-11-hydroxy-4H-benzo[c]pyrimido [5,6,1-jk]carbazole-4,6(5H)-dione hydrochloride] |  |
| 66 | CN(C)CCn1c(=O)c2cccc3c4c5c(ccc4n(c1=O)c23)CCCC5 [Example 43, 5-[2-(Dimethylamino)ethyl]-10,11,12,13-tetrahydro-4H-benzo[b]pyrimido[5,6,1-jk]carbazole-4,6(5H)-dione hydrochloride] |  |
| 49 | CN(C)CCn1c(=O)c2cccc3c4cc5ccccc5cc4n(c1=O)c23 [Example 42, 2-[2-(Dimethylamino)ethyl]-1H-benzo[b]pyrimido[5,6,1-jk]carbazole-1,3(2H)-dione hydrochloride] |  |
| 31 | Cc1ccc2c(ccc3c2c2cccc4c(=O)n(CCN(C)C)c(=O)n3c42)n1 [Example 57, 9-[2-(Dimethylamino)ethyl]-3-methyl-8H-pyrido[2,3-c]pyrimido[5,6,1-jk]carbazole-8,10(9H)-dione dihydrochloride] |  |
| 30 | CN(C)CCn1c(=O)c2cccc3c4c5ccc(N)cc5ccc4n(c1=O)c23 [Example 49, 11-Amino-5-[2-(dimethylamino)ethyl]-4H-benzo[c]pyrimido [5,6,1-jk]carbazole-4,6(5H)-dione dihydrochloride] |  |
| 15 | CN(C)CCn1c(=O)c2ccc(F)c3c4c5cccnc5ccc4n(c1=O)c23 [Example 56, 9-[2-(Dimethylamino)ethyl]-13-fluoro-8H-pyrido[2,3-c]pyrimido[5,6,1-jk]carbazole-8,10(9H)-dione dihydrochloride] |  |
| 11 | O=c1c2cccc3c4c5cccnc5ccc4n(c(=O)n1CCN1CCCC1)c23 [Example 55, 9-[2-(1-Pyrrolidinyl)ethyl]-8H-pyrido[2,3-c]pyrimido[5,6,1-jk]carbazole-8,10(9H)-dione dihydrochloride] |  |
| 7.1 | CC(=O)Nc1ccc2c(ccc3c2c2cccc4c(=O)n(CCN(C)C)c(=O)n3c42)c1 [Example 50, 11-Acetamido-5-[2-(dimethylamino)ethyl]-4H-benzo[c]pyrimido[5,6,1-jk]carbazole-4,6(5H)-dione hydrochloride] |  |

— US5952335A, “Fused polycyclic heterocycle derivatives” (Eisai Co., Ltd., priority 1995, dated 1999)
